Laboratory results from US8496929B2, “Inotropic effects of antibodies on cardiac contraction” (priority 2002, dated 2013).
Entries after “also recorded” stand apart in the source; their conditions may differ.

Columns and labels:
[1] = target: T1, digitalis-resistant rat (Na++K+)-ATPase (Rattus norvegicus, UniProt P06685); assay: (Na++K+)-ATPase activity, digitalis-resistant enzyme; format: biochemical; conditions: enzyme 100 nM; 24-400 nM test agent; 100 mM Na+, 20 mM K+, 3 mM MgATP
T1 construct: the SL vesicles (4.4 mg/ml) were titrated with 0.58 mg/ml of SDS in the presence of 2 mM ATP; from tissue; host or cells: rat heart muscle; enzyme purified from SL vesicles by SDS titration and sucrose step gradient
Method: (§1) Rat cardiac sarcolemmal (SL) vesicles were isolated from rat heart muscle by sucrose flotation method. The vesicles were tested with saponin and were predominately right-side-out in orientation. (Na^++K^+)-ATPase was purified as described previously (Kyte, J. (1971) Biochemistry, 246:4157-4165). Briefly, the SL vesicles (4.4 mg/ml) were titrated with 0.58 mg/ml of SDS in the presence of 2 mM ATP at 20° C. for 30 min. The SDS titrated fractions were then loaded on the top of a sucrose (W/W) step gradient constructed with 10 ml of 37.3% (bottom step), 20 ml of 28.8%, and 10 ml of 15% in a Ti 60 tube, and centrifuged at 40,000 rpm for 90 min. The fractions that contain (Na^++K^+)-ATPase (between 37.3 and 28.8% on the sucrose gradient) were carefully collected and sedimented at 40,000 rpm for 60 minutes. […]
The enzymatic activity was determined as described previously (Kyte J., et al., (1987) Biochemistry, 26:8350-8360) with modifications. […] The color was allowed to develop for 30 min at room temperature and the concentration of phosphate was then determined at 700 nm using a spectrophotometer.
To investigate whether the binding of Jianye affects (Na^++K^+)-ATPase activity, we measured (Na^++K^+)-ATPase (100 nM) activity in the presence of 100 mM Na^+, 20 mM K^+, 3 mM MgATP, and various concentrations of Jianye or ouabain. […]

[2] = target: T2, digitalis-sensitive (Na++K+)-ATPase purified from dog kidney (Canis lupus familiaris, UniProt P50997); assay: (Na++K+)-ATPase activity, digitalis-sensitive enzyme; format: biochemical; conditions: dog enzyme 16 nM; 24-400 nM
T2 construct: Highly purified dog kidney (Na^++K^+)-ATPase was a gift from Dr. Jack Kyte; tissue gift from Dr. Jack Kyte; host or cells: dog kidney
Method: The enzymatic activity was determined as described previously (Kyte J., et al., (1987) Biochemistry, 26:8350-8360) with modifications. Briefly, purified rat or dog (Na^++K^+)-ATPase was incubated with or without Jianye or ouabain in the presence of 100 mM Na^+ for 30 min at room temperature. The reaction was initiated by adding 3 mM MgATP and 20 mM K^+ in a final volume of 0.25 ml at 37° C. for 30 min and terminated by adding 0.75 ml quench solution and 0.025 ml developer. The color was allowed to develop for 30 min at room temperature and the concentration of phosphate was then determined at 700 nm using a spectrophotometer.
To investigate whether the binding of Jianye affects (Na^++K^+)-ATPase activity, we measured (Na^++K^+)-ATPase (100 nM) activity in the presence of 100 mM Na^+, 20 mM K^+, 3 mM MgATP, and various concentrations of Jianye or ouabain. […] To exclude the possibility that the inability of Jianye to inhibit enzymatic activity may be due to the digitalis-resistant nature of rat (Na^++K^+)-ATPase (FIG. 3), we tested the effect of Jianye on the digitalis-sensitive (Na^++K^+)-ATPase (16 nM) purified from dog kidney.

(Na++K+)-ATPase = assay: [3H]ouabain binding to cardiac sarcolemmal vesicles; set-up: species or system rat; conditions: PB added to Jianye prior to [3H]ouabain
Method: as §1, with “minutes. The purified enzyme was resuspended in a sucrose (250 mM)/histidinium chloride (30 mM) buffer, pH 7.2, quick-frozen in liquid nitrogen and stored at −70° C.” for “minutes.”
Cardiac SL vesicles (3 mg/ml) were incubated with or without various concentrations of Jianye antibody for 30 minutes at room temperature in a medium containing 1 mM MgATP, 100 mM NaCl, and 10 mM Tris/HCl buffer (ph 7.4). […] An aliquot (20 or 50 Ml) was taken from each sample and radioactivity determined using a β-scintillation counter. The percent of [^3H]ouabain binding to the enzyme was then calculated. […]

rat ventricular myocytes = assay: Cell contraction and confocal Ca2+ transients in single ventricular myocytes; format: cell-based; conditions: PB (PB95, 20 μM) mixed with Jianye prior to administration
Method: Ventricular cardiac myocytes were isolated from adult Sprague-Dawley rats (2-3 months old; weight 225-300 g) using standard enzymatic techniques. Briefly, following anesthesia (sodium pentobarbital, 100 mg/kg), the heart was quickly removed from the chest and aortic perfused at constant pressure (100 cmH2O) at 37° C. for 3 minutes with a Ca^2+-free bicarbonate-based buffer containing 120 mM NaCl, 5.4 mM MgSO4, 1.2 mM NaH2PO4, 5.6 mM glucose, 20mM NaHCO3, and 5 mM taurine, in the presence of O2 (95%)-CO2 (5%). The enzymatic digestion was initiated by adding collagenase (Worthington Type II, 1 mg/ml) to the perfusion solution. Calcium (50 μM) was added to the enzyme solution when the heart became swollen. […]
Myocytes were placed on an inverted microscope (Zeiss model IM-35), superfused with HEPES-buffered solution at a flow rate of 1.8 ml/min, and electrically stimulated at 0.5 Hz at 23° C. Cell length was monitored from the bright field image (650 nm to 750 nm red light illumination) by an optical edge-tracking method using a photodiode array (model 1024 SAQ, Reticon) with a 3 ms time resolution. The contraction amplitude was measured as the percentage of shortening of cell length. […]
We next determined whether the binding of Jianye to the (Na^++K^+)-ATPase affects cardiac contractility. […]

Compound | inhibition of rat (Na++K+)-ATPase activity [1] | effect on dog (Na++K+)-ATPase enzymatic activity [2] | inhibition of ATP hydrolysis [2] | [3H]ouabain labeling when Jianye is saturated by peptide blocker (effect on Jianye antagonism) ((Na++K+)-ATPase) | blocking of Jianye-induced increases in Ca2+ transients and contraction (rat ventricular myocytes) | blocking of Jianye-induced increases in Ca2+ transients and contraction (rat ventricular myocytes; listed as PB95)
C[C@@H]1O[C@@H](O[C@H]2C[C@@H](O)[C@]3(CO)[C@H]4[C@H](O)C[C@]5(C)[C@@H](C6=CC(=O)OC6)CC[C@]5(O)[C@@H]4CC[C@]3(O)C2)[C@H](O)[C@H](O)[C@H]1O [ouabain] | did not inactivate | reduced the enzymatic activity | up to 47% | – | – | –
KRQPRNPKTDKLVNE [PB] | – | – | – | not affected; also recorded: eliminated this antagonist effect | largely abolished; also recorded: completely abolished | largely impeded
